What all share (assay type): biochemical
One assay has as its target T1, beta-Catenin (Homo sapiens, UniProt P35222).
T1 sequence (P35222 1-781): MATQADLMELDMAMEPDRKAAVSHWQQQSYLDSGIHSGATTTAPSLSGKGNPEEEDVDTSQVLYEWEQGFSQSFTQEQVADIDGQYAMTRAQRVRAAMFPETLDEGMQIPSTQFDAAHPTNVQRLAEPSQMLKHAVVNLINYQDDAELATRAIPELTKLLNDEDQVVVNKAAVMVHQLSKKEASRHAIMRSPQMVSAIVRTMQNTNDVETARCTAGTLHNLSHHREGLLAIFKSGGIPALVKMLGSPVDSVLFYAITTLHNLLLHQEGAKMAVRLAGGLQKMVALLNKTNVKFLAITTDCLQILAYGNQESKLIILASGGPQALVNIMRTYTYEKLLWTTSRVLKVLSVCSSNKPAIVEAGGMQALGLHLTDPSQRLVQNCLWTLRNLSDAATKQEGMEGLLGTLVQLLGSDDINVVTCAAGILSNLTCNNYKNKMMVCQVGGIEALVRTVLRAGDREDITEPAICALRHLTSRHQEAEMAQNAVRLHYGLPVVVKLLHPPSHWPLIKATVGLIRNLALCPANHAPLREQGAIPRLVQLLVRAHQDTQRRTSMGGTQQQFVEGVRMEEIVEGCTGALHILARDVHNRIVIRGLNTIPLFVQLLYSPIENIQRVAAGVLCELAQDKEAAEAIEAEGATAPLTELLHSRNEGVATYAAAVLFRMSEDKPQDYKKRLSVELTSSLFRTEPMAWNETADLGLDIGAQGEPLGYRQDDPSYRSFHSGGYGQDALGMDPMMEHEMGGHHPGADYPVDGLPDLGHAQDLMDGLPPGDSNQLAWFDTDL
In words: beta-Catenin TR-FRET. As to conditions: read-out: Target #1 IC50. The procedure: (§1) Metal salt solutions for the metal ion interference set (MIIS) were prepared as 10 mM stock solutions in DMSO (see Table 3). All metal salts used have been purchased at highest industrial grade.

A further assay deals with off-target. In words: MDM2 AlphaScreen, Target #2. The procedure: as §1
(In Alpha technology, singlet oxygen from a donor bead excites a nearby acceptor bead.)

The target of a further assay is EGFR (Homo sapiens, UniProt P00533). In words: EGFR MALDI. The note with it: read-out: Target #1 IC50. The procedure: as §1
Chain of EGFR (P00533 25-1210, species assumed): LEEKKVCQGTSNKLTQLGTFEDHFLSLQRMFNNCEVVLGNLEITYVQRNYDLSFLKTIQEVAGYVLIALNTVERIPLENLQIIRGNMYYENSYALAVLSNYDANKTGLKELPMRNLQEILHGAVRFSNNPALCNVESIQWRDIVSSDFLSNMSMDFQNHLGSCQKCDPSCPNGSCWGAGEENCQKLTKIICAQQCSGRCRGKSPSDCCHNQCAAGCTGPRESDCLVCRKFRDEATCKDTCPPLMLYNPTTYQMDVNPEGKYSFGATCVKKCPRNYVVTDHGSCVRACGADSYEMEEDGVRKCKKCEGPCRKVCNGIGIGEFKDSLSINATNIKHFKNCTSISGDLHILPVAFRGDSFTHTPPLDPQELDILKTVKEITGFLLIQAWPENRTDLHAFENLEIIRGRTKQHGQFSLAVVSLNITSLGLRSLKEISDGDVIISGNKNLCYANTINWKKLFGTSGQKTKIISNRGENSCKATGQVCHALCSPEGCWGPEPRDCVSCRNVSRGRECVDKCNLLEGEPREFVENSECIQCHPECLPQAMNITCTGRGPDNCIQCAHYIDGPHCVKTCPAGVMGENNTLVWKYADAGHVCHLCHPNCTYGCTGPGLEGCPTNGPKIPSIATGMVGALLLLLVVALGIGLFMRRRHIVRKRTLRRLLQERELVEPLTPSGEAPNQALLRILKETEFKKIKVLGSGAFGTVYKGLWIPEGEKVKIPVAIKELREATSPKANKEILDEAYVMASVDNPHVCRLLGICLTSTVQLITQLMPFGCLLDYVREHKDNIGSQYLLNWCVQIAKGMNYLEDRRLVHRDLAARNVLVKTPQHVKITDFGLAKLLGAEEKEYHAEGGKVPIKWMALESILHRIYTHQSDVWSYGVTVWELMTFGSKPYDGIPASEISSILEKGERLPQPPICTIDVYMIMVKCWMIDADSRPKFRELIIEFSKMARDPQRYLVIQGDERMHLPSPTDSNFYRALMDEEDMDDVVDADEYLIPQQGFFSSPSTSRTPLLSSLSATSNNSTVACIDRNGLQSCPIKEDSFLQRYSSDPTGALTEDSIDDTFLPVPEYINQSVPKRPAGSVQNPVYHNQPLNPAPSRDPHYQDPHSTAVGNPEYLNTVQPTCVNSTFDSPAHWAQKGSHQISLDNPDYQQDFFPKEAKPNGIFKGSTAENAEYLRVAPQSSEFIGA
In the next assay the target is WRN (ext.) (Homo sapiens, UniProt Q14191). Nature of the assay: WRN ADP-Glo, Target #2. The procedure:
as §1

In a further assay the target is LSD1 (Homo sapiens, UniProt O60341). In words: LSD1 DELFIA. As to conditions: read-out: Target #1 IC50. On the procedure: as §1
For a further assay, the target named is KRAS GTP (Homo sapiens, UniProt P01116, G12D). Nature of the assay: KRAS AlphaScreen, Target #2. On the procedure:
as §1

For another assay, the system named is off target (ext.). In words: WRN ADP-Glo, Target #4. On the procedure:
as §1

Another assay concerns the target WRN (int.) (Homo sapiens, UniProt Q14191). In words: WRN ADP-Glo, Target #1. On the procedure:
as §1
(In general: ADP-Glo turns the ADP formed in a reaction into a luminescent signal.)

For the next assay, the target named is T2, NSD3 (Homo sapiens, UniProt Q9BZ95).
T2 sequence (Q9BZ95 1-1437): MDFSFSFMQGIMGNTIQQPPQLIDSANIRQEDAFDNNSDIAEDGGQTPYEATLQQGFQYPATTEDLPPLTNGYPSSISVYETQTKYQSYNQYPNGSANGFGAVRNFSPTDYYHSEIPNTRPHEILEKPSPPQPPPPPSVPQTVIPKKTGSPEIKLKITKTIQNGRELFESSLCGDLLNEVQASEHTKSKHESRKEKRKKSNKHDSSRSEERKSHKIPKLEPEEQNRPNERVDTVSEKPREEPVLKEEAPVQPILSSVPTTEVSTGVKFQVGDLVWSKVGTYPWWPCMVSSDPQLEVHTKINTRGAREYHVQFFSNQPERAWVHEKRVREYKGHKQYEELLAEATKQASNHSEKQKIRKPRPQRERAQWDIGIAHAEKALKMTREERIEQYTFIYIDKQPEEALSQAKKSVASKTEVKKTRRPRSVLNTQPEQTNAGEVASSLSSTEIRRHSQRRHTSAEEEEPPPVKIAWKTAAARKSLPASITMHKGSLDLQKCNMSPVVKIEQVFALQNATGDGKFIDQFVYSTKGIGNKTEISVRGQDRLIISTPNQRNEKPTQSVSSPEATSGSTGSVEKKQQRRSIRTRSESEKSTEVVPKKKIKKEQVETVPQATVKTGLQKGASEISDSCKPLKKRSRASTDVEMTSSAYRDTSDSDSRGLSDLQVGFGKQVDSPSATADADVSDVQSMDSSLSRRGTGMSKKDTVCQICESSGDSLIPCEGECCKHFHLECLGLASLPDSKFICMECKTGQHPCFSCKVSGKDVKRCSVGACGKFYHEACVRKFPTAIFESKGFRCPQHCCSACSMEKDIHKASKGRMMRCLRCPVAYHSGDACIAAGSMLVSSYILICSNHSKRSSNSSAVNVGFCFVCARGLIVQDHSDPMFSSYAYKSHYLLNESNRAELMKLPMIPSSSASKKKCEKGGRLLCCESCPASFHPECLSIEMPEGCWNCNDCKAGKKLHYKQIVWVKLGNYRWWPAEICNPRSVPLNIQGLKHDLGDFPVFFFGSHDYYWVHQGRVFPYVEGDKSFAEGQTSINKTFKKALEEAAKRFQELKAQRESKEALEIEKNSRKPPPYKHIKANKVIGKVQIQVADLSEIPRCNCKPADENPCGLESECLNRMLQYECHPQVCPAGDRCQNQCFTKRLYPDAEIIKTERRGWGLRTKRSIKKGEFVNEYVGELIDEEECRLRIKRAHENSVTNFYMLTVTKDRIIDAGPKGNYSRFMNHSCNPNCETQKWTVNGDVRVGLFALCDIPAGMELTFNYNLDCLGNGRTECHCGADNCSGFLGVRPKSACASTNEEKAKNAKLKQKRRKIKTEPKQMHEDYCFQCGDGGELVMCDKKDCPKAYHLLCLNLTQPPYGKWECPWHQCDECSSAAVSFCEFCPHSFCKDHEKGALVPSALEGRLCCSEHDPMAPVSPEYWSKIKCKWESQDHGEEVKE
In words: NSD3 TR-FRET. The note with it: read-out: Target #1 IC50. On the procedure: as §1
On the technique in general: Time-resolved FRET reads energy transfer from a long-lived donor to a nearby acceptor.

The subject of another assay is off target. Nature of the assay: MDM2 AlphaScreen, Target #3. On the procedure:
as §1

A word on the IC50: it is the point on the concentration scale where inhibition reaches its midpoint.

A value given as a limit tells only on which side of the number the result lay.

Chain of KRAS GTP (P01116 1-169 isoform P01116-2 G12D): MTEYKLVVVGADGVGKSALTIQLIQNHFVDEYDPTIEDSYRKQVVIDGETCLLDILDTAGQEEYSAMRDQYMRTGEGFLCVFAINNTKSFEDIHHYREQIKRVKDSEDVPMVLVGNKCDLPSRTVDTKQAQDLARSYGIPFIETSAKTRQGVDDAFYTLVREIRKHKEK
Chain of WRN (int.) (Q14191 whole entry, species assumed): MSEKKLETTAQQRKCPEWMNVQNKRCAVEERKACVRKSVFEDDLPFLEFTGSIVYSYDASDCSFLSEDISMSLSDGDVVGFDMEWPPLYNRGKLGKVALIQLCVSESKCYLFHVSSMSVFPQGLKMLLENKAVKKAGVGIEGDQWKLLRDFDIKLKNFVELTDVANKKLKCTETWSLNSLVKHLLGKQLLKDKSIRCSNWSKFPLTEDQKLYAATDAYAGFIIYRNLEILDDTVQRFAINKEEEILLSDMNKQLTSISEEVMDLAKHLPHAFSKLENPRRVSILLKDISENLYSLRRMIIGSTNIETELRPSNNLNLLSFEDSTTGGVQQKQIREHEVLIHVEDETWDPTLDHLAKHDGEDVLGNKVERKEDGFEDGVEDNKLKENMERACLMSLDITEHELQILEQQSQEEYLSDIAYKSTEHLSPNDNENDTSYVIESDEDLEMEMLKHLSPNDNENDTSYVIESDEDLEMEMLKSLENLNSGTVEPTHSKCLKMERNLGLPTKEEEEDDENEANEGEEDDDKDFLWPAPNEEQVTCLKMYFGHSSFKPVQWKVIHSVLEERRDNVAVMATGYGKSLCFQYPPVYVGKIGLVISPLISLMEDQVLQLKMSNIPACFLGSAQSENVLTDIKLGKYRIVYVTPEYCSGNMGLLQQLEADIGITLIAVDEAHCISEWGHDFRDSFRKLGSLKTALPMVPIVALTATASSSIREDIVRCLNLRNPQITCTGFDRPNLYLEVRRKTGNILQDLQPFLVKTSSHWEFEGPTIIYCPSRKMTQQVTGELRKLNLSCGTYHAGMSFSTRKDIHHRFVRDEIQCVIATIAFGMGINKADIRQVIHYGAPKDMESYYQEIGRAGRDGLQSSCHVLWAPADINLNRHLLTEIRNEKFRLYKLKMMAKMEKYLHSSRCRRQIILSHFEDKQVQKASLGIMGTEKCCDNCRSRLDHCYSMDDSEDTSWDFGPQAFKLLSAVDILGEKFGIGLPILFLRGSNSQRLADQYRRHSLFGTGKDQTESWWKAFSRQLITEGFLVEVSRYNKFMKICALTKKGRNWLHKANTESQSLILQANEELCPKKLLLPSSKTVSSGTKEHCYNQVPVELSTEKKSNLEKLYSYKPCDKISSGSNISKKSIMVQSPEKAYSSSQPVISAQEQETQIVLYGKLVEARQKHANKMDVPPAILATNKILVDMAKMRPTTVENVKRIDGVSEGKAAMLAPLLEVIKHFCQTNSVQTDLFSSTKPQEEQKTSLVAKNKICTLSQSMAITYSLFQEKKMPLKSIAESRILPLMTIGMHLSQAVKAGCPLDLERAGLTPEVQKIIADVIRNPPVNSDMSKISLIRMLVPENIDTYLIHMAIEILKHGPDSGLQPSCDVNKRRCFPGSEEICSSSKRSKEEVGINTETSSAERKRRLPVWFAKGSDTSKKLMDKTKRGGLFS
Chain of WRN (ext.) (Q14191 whole entry, species assumed): as above

Turning to `CC(=O)[O-].[Ag+]` [Ag (CH 3COO), Silver acetate], the IC50 on beta-Catenin was below 1 µM; in the assay with off-target, above 10 µM; on EGFR, above 10 µM; on WRN (ext.) it was above 10 µM; on LSD1, 1 to 10 µM; against KRAS GTP, above 10 µM. Besides, the IC50 was above 10 µM in the assay with off target (ext.), above 10 µM against WRN (int.), 1 to 10 µM at NSD3 and above 10 µM in the assay with off target.

Take `O=[N+]([O-])[O-].O=[N+]([O-])[O-].O=[N+]([O-])[O-].[Al+3]` [Al(NO3)3, Aluminum nitrate]: the IC50 on beta-Catenin was above 10 µM; in the assay with off-target, above 10 µM; at EGFR, above 10 µM; against WRN (ext.), above 10 µM; on LSD1, 1 to 10 µM; against KRAS GTP, above 10 µM. Also, the IC50 in the assay with off target (ext.), at WRN (int.), on NSD3 and in the assay with off target was above 10 µM each time.

Consider `[Cl][Au]([Cl])[Cl]` [AuCl3, Gold(III) chloride], for which the IC50 is below 1 µM at beta-Catenin; above 10 µM in the assay with off-target; above 10 µM at EGFR; 1 to 10 µM at WRN (ext.); 1 to 10 µM on LSD1; 1 to 10 µM against KRAS GTP. For the same molecule, the IC50 is above 10 µM in the assay with off target (ext.), above 10 µM at WRN (int.), below 1 µM on NSD3 and above 10 µM in the assay with off target.

Turning to `[Cl-].[Cl-].[Co+2]` [CoCl2, Cobalt(II) chloride], the IC50 on beta-Catenin, in the assay on off-target, at EGFR, against WRN (ext.), at KRAS GTP and in the assay with off target (ext.) was above 10 µM in each case. Further, the IC50 against WRN (int.), on NSD3 and with off target was above 10 µM each time.

For `[Cl][Cu][Cl]` [CuCl2, Copper(II) chloride], the IC50 is above 10 µM on beta-Catenin; above 10 µM with off-target; above 10 µM on EGFR; 1 to 10 µM at WRN (ext.); above 10 µM on LSD1; above 10 µM against KRAS GTP. The IC50 with off target (ext.), on WRN (int.), at NSD3 and with off target was above 10 µM in each case.

Take `[Cl][Fe][Cl]` [FeCl2, Iron(II) chloride]: the IC50 on beta-Catenin is above 10 µM; at EGFR it was above 10 µM; on WRN (ext.), above 10 µM; on LSD1 it was above 10 µM; against KRAS GTP it was 1 to 10 µM; in the assay on off target (ext.) it was above 10 µM. Besides, the half-inhibitory concentration (IC50) on WRN (int.), at NSD3 and in the assay on off target was above 10 µM each time.

Take `[Cl][Fe]([Cl])[Cl]` [FeCl3, Iron(III) chloride]: the IC50 on beta-Catenin is above 10 µM; in the assay on off-target, above 10 µM; on EGFR, above 10 µM; against WRN (ext.) it was above 10 µM; at LSD1, above 10 µM; at KRAS GTP, 1 to 10 µM. Besides, the IC50 with off target (ext.), against WRN (int.), at NSD3 and in the assay with off target was above 10 µM each time.

With `[Cl-].[Cl-].[Mg+2]` [MgCl2, Magnesium chloride], the 50% inhibitory concentration (IC50) on beta-Catenin was above 10 µM; in the assay with off-target, above 10 µM; on EGFR it was above 10 µM; against WRN (ext.), above 10 µM; at LSD1, above 10 µM; at KRAS GTP it was 1 to 10 µM. Further, the IC50 with off target (ext.), on WRN (int.), on NSD3 and in the assay with off target was above 10 µM each time.

Regarding `[Cl][Mn][Cl]` [MnCl2, Manganese(II) chloride], the IC50 at beta-Catenin, with off-target, at EGFR, against WRN (ext.), on LSD1 and at KRAS GTP was above 10 µM in each case. Further, the IC50 in the assay on off target (ext.), against WRN (int.), on NSD3 and with off target was above 10 µM each time.

`[Cl][Ni][Cl]` [NiCl2, Nickel(II) chloride]: the IC50 at beta-Catenin was above 10 µM; with off-target, above 10 µM; at EGFR it was above 10 µM; against WRN (ext.), above 10 µM; at LSD1, 1 to 10 µM; at KRAS GTP, above 10 µM. Besides, the IC50 in the assay on off target (ext.), against WRN (int.), on NSD3 and in the assay on off target was above 10 µM throughout.

As for `[Cl][Pd][Cl]` [PdCl2, Palladium(II) chloride], the IC50 was above 10 µM at beta-Catenin; above 10 µM in the assay with off-target; above 10 µM at EGFR; 1 to 10 µM on WRN (ext.); 1 to 10 µM on LSD1; below 1 µM on KRAS GTP. Also, the IC50 in the assay on off target (ext.) was above 10 µM; at WRN (int.), below 1 µM; on NSD3 it was above 10 µM; in the assay on off target, above 10 µM.

With `[Cl][Sn][Cl]` [SnCl2, Tin(II) chloride], the IC50 is above 10 µM at beta-Catenin; above 10 µM with off-target; above 10 µM on EGFR; above 10 µM on WRN (ext.); above 10 µM on LSD1; 1 to 10 µM against KRAS GTP. The IC50 with off target (ext.) is above 10 µM; on WRN (int.) it was above 10 µM; at NSD3, below 1 µM; with off target, above 10 µM.

For `[Cl-].[Cl-].[Zn+2]` [ZnCl2, Zinc(II) chloride], the IC50 on beta-Catenin, in the assay on off-target, at EGFR, against WRN (ext.), on LSD1 and against KRAS GTP was above 10 µM each time. Further, the IC50 was above 10 µM in the assay with off target (ext.), 1 to 10 µM at WRN (int.), above 10 µM on NSD3 and above 10 µM in the assay on off target.
